Experimental data taken from the supplement of paper PMC10307832.

Tests used:
Experiment in all cases: relative viability (nuclei count vs DMSO), 5 days (fraction); higher = more cells survive
[1] = compound: C=CCn1c(=O)c2cnc(Nc3ccc(N4CCN(C)CC4)cc3)nc2n1-c1cccc(C(C)(C)O)n1 [Adavosertib] + CC(=O)c1c(C)c2cnc(Nc3ccc(N4CCNCC4)cn3)nc2n(C2CCCC2)c1=O [Palbociclib] (partner 0.5 µM)
In short: (§1)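 Dosing by pin tool came one day after lung cancer cell lines were seeded in 1536-well plates, using either one drug or a fixed anchor-drug dose plus five library-drug doses (not always all listed) in √10 steps. After 5 days, nuclei were counted on 4× images. Relative viability is treated-well nuclei count divided by vehicle-well nuclei count, and values are medians of duplicate plates.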

Nelarabine + Decitabine = compound: COc1nc(N)nc2c1ncn2[C@@H]1O[C@H](CO)[C@@H](O)[C@@H]1O [Nelarabine] + Nc1ncn([C@H]2C[C@H](O)[C@@H](CO)O2)c(=O)n1 [Decitabine] (partner 2 µM)
In short: as §1

Nelarabine + Alpelisib = compound: COc1nc(N)nc2c1ncn2[C@@H]1O[C@H](CO)[C@@H](O)[C@@H]1O [Nelarabine] + Cc1nc(NC(=O)N2CCC[C@H]2C(N)=O)sc1-c1ccnc(C(C)(C)C(F)(F)F)c1 [Alpelisib] (partner 2 µM)
In short: as §1

Adavosertib + Pemetrexed = compound: C=CCn1c(=O)c2cnc(Nc3ccc(N4CCN(C)CC4)cc3)nc2n1-c1cccc(C(C)(C)O)n1 [Adavosertib] + Nc1nc2[nH]cc(CCc3ccc(C(=O)N[C@@H](CCC(=O)O)C(=O)O)cc3)c2c(=O)[nH]1 [Pemetrexed] (partner 0.2 µM)
In short: as §1

| Cell Line | relative viability ([1]; first compound 0.01 µM) | relative viability ([1]; first compound 0.03162 µM) | relative viability ([1]; first compound 0.1 µM) | relative viability ([1]; first compound 0.3162 µM) | relative viability (Nelarabine + Decitabine; first compound 0.01 µM) | relative viability (Nelarabine + Decitabine; first compound 0.03162 µM) | relative viability (Nelarabine + Decitabine; first compound 0.1 µM) | relative viability (Nelarabine + Decitabine; first compound 0.3162 µM) | relative viability (Nelarabine + Decitabine; first compound 1 µM) | relative viability (Nelarabine + Alpelisib; first compound 0.01 µM) | relative viability (Nelarabine + Alpelisib; first compound 0.03162 µM) | relative viability (Nelarabine + Alpelisib; first compound 0.1 µM) | relative viability (Nelarabine + Alpelisib; first compound 0.3162 µM) | relative viability (Nelarabine + Alpelisib; first compound 1 µM) | relative viability (Adavosertib + Pemetrexed; first compound 0.01 µM) | relative viability (Adavosertib + Pemetrexed; first compound 0.03162 µM) | relative viability (Adavosertib + Pemetrexed; first compound 0.1 µM) | relative viability (Adavosertib + Pemetrexed; first compound 0.3162 µM) |
| --- | --- | --- | --- | --- | --- | --- | --- | --- | --- | --- | --- | --- | --- | --- | --- | --- | --- | --- |
| NCI-H1915 | 0.535 | 0.564 | 0.645 | 0.644 | 0.261 | 0.266 | 0.258 | 0.27 | 0.268 | 1.2 | 1.05 | 1.11 | 1.07 | 1.06 | 0.528 | 0.464 | 0.346 | 0.259 |
| ABC-1 | 0.736 | 0.745 | 0.777 | 0.896 | 1.25 | 1.21 | 1.09 | 1.05 | 0.972 | 1.06 | 1.3 | 1.24 | 0.937 | 1.08 |  |  |  |  |
| NCI-H358 | 0.15 | 0.137 | 0.0992 | 0.128 | 0.219 | 0.214 | 0.171 | 0.215 | 0.219 | 0.906 | 0.839 | 0.62 | 0.845 | 0.857 | 0.227 | 0.189 | 0.166 | 0.157 |
| HCC-366 | 0.396 | 0.388 | 0.471 | 0.329 | 0.419 | 0.346 | 0.296 | 0.31 | 0.34 | 0.468 | 0.267 | 0.308 | 0.517 | 0.47 | 0.227 | 0.143 | 0.136 | 0.0818 |
| EBC-1 |  |  |  |  |  |  |  |  |  | 0.86 | 0.829 | 0.941 | 0.87 | 0.951 |  |  |  |  |
| NCI-H1650 | 0.295 | 0.34 | 0.289 | 0.293 | 0.392 | 0.447 | 0.484 | 0.478 | 0.333 |  |  |  |  |  | 0.387 | 0.366 | 0.281 | 0.278 |
| NCI-H1395 | 0.616 | 0.657 | 0.591 | 0.674 | 0.678 | 0.65 | 0.723 | 0.7 | 0.704 | 1.15 | 0.987 | 1 | 1.34 | 0.99 | 0.766 | 0.938 | 0.604 | 0.689 |
| SW 900 | 0.403 | 0.633 | 0.567 | 0.538 | 0.415 | 0.399 | 0.398 | 0.39 | 0.41 |  |  |  |  |  | 0.457 | 0.484 | 0.492 | 0.443 |
| NCI-H1666 | 0.613 | 0.64 | 0.662 | 0.699 | 0.651 | 0.843 | 0.736 | 0.754 | 0.668 | 0.99 | 0.917 | 0.957 | 1.05 | 0.883 | 0.808 | 0.925 | 0.82 | 0.695 |
| COR-L23 | 0.291 | 0.338 | 0.274 | 0.205 | 0.532 | 0.381 | 0.408 | 0.482 | 0.446 | 0.969 | 0.768 | 0.743 | 0.869 | 0.747 | 0.203 | 0.198 | 0.204 | 0.165 |
| ChaGo-K-1 | 0.884 | 0.949 | 1.01 | 0.885 | 0.559 | 0.532 | 0.52 | 0.539 | 0.539 |  |  |  |  |  | 0.271 | 0.255 | 0.258 | 0.257 |
| SW 1573 | 0.364 | 0.42 | 0.401 | 0.392 | 0.582 | 0.503 | 0.513 | 0.58 | 0.483 | 0.57 | 0.848 | 0.803 | 0.806 | 0.818 | 0.871 | 0.747 | 0.912 | 0.557 |
| NCI-H23 | 0.503 | 0.53 | 0.419 | 0.219 | 0.249 | 0.272 | 0.299 | 0.348 | 0.303 | 0.637 | 0.719 | 0.606 | 0.686 | 0.693 | 0.664 | 0.539 | 0.487 | 0.262 |
| NCI-H1299 |  |  |  |  |  |  |  |  |  | 1.16 | 1.11 | 1.04 | 1.08 | 1.2 |  |  |  |  |
| NCI-H1944 | 0.298 | 0.317 | 0.317 | 0.319 | 0.423 | 0.449 | 0.457 | 0.416 | 0.427 | 0.817 | 0.78 | 0.828 | 0.814 | 0.79 | 0.621 | 0.582 | 0.428 | 0.27 |
| PC-3 [JPC-3] |  | 0.502 | 0.28 | 0.544 | 0.84 | 0.81 | 0.843 | 0.799 | 0.872 | 1.14 | 0.993 | 1.06 | 1.05 | 0.986 |  | 1.24 | 1.26 | 1.12 |
| NCI-H2126 | 0.352 | 0.34 | 0.352 | 0.35 | 0.658 | 0.616 | 0.563 | 0.594 | 0.559 | 0.875 | 0.81 | 0.779 | 0.744 | 0.774 | 0.615 | 0.66 | 0.695 | 0.643 |
| HCC-827 | 0.467 | 0.452 | 0.533 | 0.532 | 0.24 | 0.315 | 0.306 | 0.355 | 0.289 | 0.999 | 0.848 | 0.839 | 0.784 | 0.595 | 0.283 | 0.223 | 0.284 | 0.245 |
| H3255 | 0.317 | 0.341 | 0.333 | 0.32 | 0.712 | 0.563 | 0.574 | 0.64 | 0.632 | 0.859 | 0.897 | 0.644 | 0.687 | 0.75 | 0.553 | 0.59 | 0.563 | 0.536 |
| NCI-H838 | 0.232 | 0.211 | 0.224 | 0.213 | 0.54 | 0.432 | 0.473 | 0.513 | 0.466 | 1.29 | 0.769 | 1.07 | 1.11 | 1.02 | 0.263 | 0.22 | 0.172 | 0.168 |
